According to PMC6268492, “Synthesis and Antiangiogenic Activity of Novel Gambogic Acid Derivatives” (Molecules, 2012):
Like-named read-outs stand apart in the source and are kept apart here.

Legend:
[1] = tested on: A549; test: MTT assay, cell proliferation; type: cell-based; conditions: Homo sapiens, 24 h, read-out: IC50, inhibition of cell proliferation
Description: (§1) HepG2, HCT116, HeLa and LO2 cell lines were cultured in DMEM containing 10% fetal bovine serum (FBS), 100 IU/mL penicillin and 100 µg/mL streptomycin; A549 and K562 cell lines were cultured in RPMI 1640 medium containing 10% fetal bovine serum (FBS), 100 IU/mL penicillin and 100 µg/mL streptomycin; Human umbilical vein endothelial cells (HUVECs) were cultured on gelatin-coated culture flasks in M-199 medium with 20% fetal bovine serum (FBS), 2 ng/mL VEGF, 10 ng/mL basic FGF, 100 IU/mL penicillin, and 100 μg/mL streptomycin; all of them were obtained from the American Type Culture Collection (ATCC) and all cell lines were incubated in an atmosphere of 5% CO2 at 37 °C.
(§2) Cells were treated with various concentrations of compound in 96-well culture plates for 24 h in final volumes of 200 μL (5 × 10^3 cells/well). Then 20 μL of MTT solution (5 mg/mL) was added to each well, and cells were incubated for an additional 3 h. Then the medium was carefully removed, and precipitates were dissolved in 150 μL of DMSO, shaken mechanically for 30 min, and then absorbance values at a wavelength of 570 nm were taken on a spectrophotometer (Molecular Devices, Sunnyvale, CA, USA). Values were calculated using percentage of growth versus untreated control. The IC50 was defined as the concentration that caused 50% inhibition of cell proliferation, and was calculated by SAS statistical software.

[2] = tested on: HCT116; test: MTT assay, cell proliferation; type: cell-based; conditions: Homo sapiens, HCT-116, 24 h, read-out: IC50, inhibition of cell proliferation
Description: as §1, §2

[3] = tested on: HeLa; test: MTT assay, cell proliferation; type: cell-based; conditions: Homo sapiens, 24 h, read-out: IC50, inhibition of cell proliferation
Description: as §1, §2

[4] = tested on: HepG2; test: MTT assay, cell proliferation; type: cell-based; conditions: Homo sapiens, 24 h, read-out: IC50, inhibition of cell proliferation
Description: as §1, §2

[5] = tested on: K562; test: MTT assay, cell proliferation; type: cell-based; conditions: Homo sapiens, 24 h, read-out: IC50, inhibition of cell proliferation
Description: as §1, §2

[6] = tested on: HUVEC; test: MTT assay, cell proliferation; type: cell-based, Human; conditions: Homo sapiens, 24 h, read-out: IC50, inhibition of cell proliferation
Description: Inhibiting the proliferation of ECs is another important strategy for antiangiogenesis. […] As the exposure time of these derivatives was 24 h in the migration assay and 6 h in the tube formation assay, the effect of the incubation for 24 h in the presence of these compounds on HUVECs proliferation was then tested. Cell viability was assessed by the MTT method. We can see from Table 4 that these compounds had different antiproliferative activities.
as §1, §2

[7] = tested on: LO2; test: MTT assay, cytotoxicity; type: cell-based; conditions: Homo sapiens, L02, 24 h, read-out: IC50, inhibition of cell proliferation
Description: as §1, §2

[8] = tested on: transgenic fli-1: enhanced GFP zebrafish embryos; test: Zebrafish embryo assay: antiangiogenic effects; type: in vivo, zebrafish (Danio rerio)
Description: As stated previously, zebrafish is regarded as a powerful tool in the study of human diseases. […] In this study, all GA derivatives were incubated with the transgenic friend leukemia integration-1 (fli-1): enhanced GFP zebrafish embryos which carried a fli-1 promoter which can drive the expression of GFP in the whole endothelium.
Figure 1 Effects on neovascularization in zebrafish embryos. The transgenic fli-1: enhanced GFP zebrafish embryos in embryo water (0.2 g/L of instant ocean salt in distilled water) incubated with 1 μM of compounds at 6 h postfertilization (hpf) for 24 h. Zebrafish embryos were imaged (Imager.Z1, magnification: left, 40×; right, 100×).
Using transgenic fli-1: enhanced GFP zebrafish embryos, we investigated the effects of all compounds on angiogenesis. […] At about 6 h post fertilization (hpf), the embryos were sorted in the 6-well plate (six embryos/well), removing dead and unhealthy embryos. Then the embryos were treated with the indicated concentrations of compounds which were added into embryo water. After incubation for 24 or 48 h, the embryos were anesthetized using 0.05% 2-phenoxyethanol in embryo water, quantified and photographed.

[9] = Danio rerio, zebrafish embryos, vs vehicle (0.05% DMSO), read-out: Anti-angiogenic phenotype

SMILES	IC50 [1] [µM]	IC50 [2] [µM]	IC50 [3] [µM]	IC50 [4] [µM]	IC50 [5] [µM]	IC50 [6] [µM]	IC50 [7] [µM]	antiangiogenic activities ([8]; 2.5 μM, not enhanced greatly at 10 μM)	inhibition in vivo at 1 µM ([8]; Danio rerio, 1 μM, zebrafish embryos, read-out: antiangiogenic rates) [%]	inhibition in vivo at 1 µM ([8]; Danio rerio, 1 μM, zebrafish embryos, vs vehicle (0.05% DMSO), read-out: Anti-angiogenic phenotype) [%]	inhibition in vivo at 2.5 µM ([8]; Danio rerio, 2.5 μM, zebrafish embryos, vs vehicle (0.05% DMSO), read-out: Anti-angiogenic phenotype) [%]	inhibition in vivo at 10 µM [8, 9] [%]	antiangiogenic rates ([8]; 1 μM, zebrafish embryos)
CC(C)=CCCC1(C)C=Cc2c(O)c3c(c(CC=C(C)C)c2O1)OC12C(=CC4CC1C(C)(C)OC2(C/C=C(/C)C(=O)Oc1ccc2ccc(=O)oc2c1)C4=O)C3=O (stereo not drawn) [Compound 7, Coumarin-7-gambogate]	15.4 ± 2.57	6 ± 0.4	16.1 ± 0.55	10.8 ± 1.1	2.5 ± 0.12	10.9 ± 0.72	8.28 ± 0.33						
CC(C)=CCCC1(C)C=Cc2c(O)c3c(c(CC=C(C)C)c2O1)OC12C(=CC4CC1C(C)(C)OC2(C/C=C(/C)C(=O)Oc1ccc(NC(=O)CCCl)cc1)C4=O)C3=O (stereo not drawn) [Compound 9, 3-Chloro-N-(4-phenylgambogate)propanamide]	3.75 ± 0.35	2.05 ± 0.41	3.42 ± 0.19	5.16 ± 0.55	1.14 ± 0.03	4.27 ± 0.25	1 ± 0.1	moderate	< 25	< 25	25 to 50	25 to 50	
CC(C)=CCCC1(C)C=Cc2c(O)c3c(c(CC=C(C)C)c2O1)OC12C(=CC4CC1C(C)(C)OC2(C/C=C(/C)C(=O)Oc1cccc(C#N)c1)C4=O)C3=O (stereo not drawn) [Compound 12, 3-Cyanophenyl gambogate]	10.7 ± 0.26	5.57 ± 0.26	7.1 ± 1.43	7.8 ± 0.11	1.79 ± 0.08	7.58 ± 1.36	5.15 ± 1.19						
CC(C)=CCCC1(C)C=Cc2c(O)c3c(c(CC=C(C)C)c2O1)OC12C(=CC4CC1C(C)(C)OC2(C/C=C(/C)C(=O)Oc1cccc(C)c1[N+](=O)[O-])C4=O)C3=O (stereo not drawn) [Compound 14, 3-Methyl-2-nitrophenyl gambogate]	> 80	34.8 ± 1.84	> 80	40.6 ± 2.75	22.6 ± 0.53	42 ± 2.76	70.8 ± 2.47						
CC(C)=CCCC1(C)C=Cc2c(O)c3c(c(CC=C(C)C)c2O1)OC12C(=CC4CC1C(C)(C)OC2(C/C=C(/C)C(=O)Oc1cccc(C=O)c1)C4=O)C3=O (stereo not drawn) [Compound 15, 3-Formylphenyl gambogate]	33 ± 1.5	6.8 ± 0.78	62.6 ± 3.12	10.85 ± 0.06	6.11 ± 0.39	13.6 ± 1.16	14.8 ± 1.19						
CC(C)=CCCC1(C)C=Cc2c(O)c3c(c(CC=C(C)C)c2O1)OC12C(=CC4CC1C(C)(C)OC2(C/C=C(/C)C(=O)Oc1ccc(C(=O)CBr)cc1)C4=O)C3=O (stereo not drawn) [Compound 16, 4-(2-Bromoacetyl)phenyl gambogate]	> 80	5.08 ± 0.77	8.98 ± 0.58	4.51 ± 0.29	3.46 ± 0.34	11.9 ± 1.36	5.25 ± 0.51					25 to 50	inactive
CC(C)=CCCC1(C)C=Cc2c(O)c3c(c(CC=C(C)C)c2O1)OC12C(=CC4CC1C(C)(C)OC2(C/C=C(/C)C(=O)Oc1ccccc1Br)C4=O)C3=O (stereo not drawn) [Compound 17, 2-Bromophenyl gambogate]	> 80	33 ± 1.27	> 80	61.9 ± 2.69	27 ± 1.41	29.9 ± 1.44	72.8 ± 2.84						
COCCc1ccc(OC(=O)/C(C)=C\CC23OC(C)(C)C4CC(C=C5C(=O)c6c(O)c7c(c(CC=C(C)C)c6OC542)OC(C)(CCC=C(C)C)C=C7)C3=O)cc1 (stereo not drawn) [Compound 18, 4-(2-Methoxyethyl)phenyl gambogate]	66.2 ± 1.65	2.45 ± 0.15	> 80	6.45 ± 0.37	7.52 ± 0.83	10.4 ± 1.08	15.2 ± 0.72						
